Measured values taken from patent publication US8163909B2, “Substituted hydroxyethyl amine compounds as beta-secretase modulators and methods of use” (Amgen Inc., priority 2007, dated 2012).
Like-named read-outs stand apart in the source and are kept apart here.

Key:
[1] = system: Aβ40 in conditioned medium of cells stably expressing Amyloid Precursor Protein (APP); test: In vitro BACE cell-based assay (Aβ40 in conditioned medium, sandwich ELISA);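 note: compounds added as a dilution series, secreted peptide quantified by europium time-resolved fluorescence readout, potency fitted from percent of control versus compound concentration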
[2] = target: Beta Secretase enzyme (BACE) (Homo sapiens, UniProt P56817); test: In vitro enzymatic BACE FRET (fluorescence resonance energy transfer) assay; assay type: biochemical;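 note: fluorescence read after 1 h with 50 nM quenched peptide substrate spanning the BACE cleavage site, in pH 4.2 acetate buffer containing 10% DMSO and nonionic detergent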
[3] = Homo sapiens, HEK293, HEK cells, cell-based assay, read-out: HEK cell assay (IC50)
[4] = BACE enzyme assay, read-out: BACE1 FRET assay (IC50)
[5] = BACE enzyme FRET assay, read-out: BACE1 FRET assay (IC50)
[6] = HEK cells, cell-based assay, read-out: HEK cell assay (IC50)
[7] = BACE enzyme assay, IC50's in uM, read-out: BACE1 FRET assay
[8] = Homo sapiens, HEK293, Table 1, HEK cells, read-out: HEK cell assay
[9] = Table 1, read-out: BACE1 FRET assay
[10] = Homo sapiens, HEK293, HEK cell-based assay, IC50's in uM, read-out: HEK cell assay

Sequence of Beta Secretase enzyme (BACE) (P56817 46-501): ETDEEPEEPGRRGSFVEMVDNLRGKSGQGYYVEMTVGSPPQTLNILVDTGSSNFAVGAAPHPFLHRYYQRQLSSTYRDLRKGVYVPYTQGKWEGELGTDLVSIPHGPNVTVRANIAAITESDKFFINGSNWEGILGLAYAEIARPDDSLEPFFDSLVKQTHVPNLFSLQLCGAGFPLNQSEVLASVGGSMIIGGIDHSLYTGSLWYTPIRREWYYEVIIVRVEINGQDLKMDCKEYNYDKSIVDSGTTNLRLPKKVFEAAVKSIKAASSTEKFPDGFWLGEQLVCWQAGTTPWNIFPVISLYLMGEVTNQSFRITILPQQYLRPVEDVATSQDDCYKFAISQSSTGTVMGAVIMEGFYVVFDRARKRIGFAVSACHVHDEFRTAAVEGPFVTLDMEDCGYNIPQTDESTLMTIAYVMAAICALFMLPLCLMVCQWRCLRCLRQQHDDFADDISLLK

Row | SMILES | IC50 [1, 3] | IC50 [2, 4] | IC50 [2, 5] | other results
1 | CNc1nc(CC(C)(C)C)cc2c1OC1(CCC1)C[C@@H]2N(C)C[C@@H](O)[C@H](Cc1ccc2c(c1)OCO2)NC(=O)[C@@H](C)OC [compound 145] | 0.777 µM | 0.298 µM |  | 
2 | COCC(=O)N[C@@H](Cc1ccc2c(c1)OCO2)[C@H](O)CN[C@H]1CC2(CCC2)Oc2ncc(CC(C)(C)F)cc21 [compound 285] | 0.0738 µM |  | 0.057 µM | 
3 | CC(=O)N[C@@H](Cc1cc(F)cc(F)c1)[C@H](O)CN[C@H]1CC2(CCC2)Oc2ncc(CC(C)(C)C#N)cc21 [compound 91] | 0.00646 µM | 0.00442 µM |  | 
4 | COC(C)C(=O)NC(Cc1ccc2c(c1)OCO2)C(O)CNC1CC2(CC(O)C2)Oc2ccc(CC(C)(C)C)cc21 [compound 268, (2R)—N-((1S,2R)-1-(1,3-benzodioxol-5-ylmethyl)-3-(((2s,3′S,4S)-6-(2,2-dimethylpropyl)-3′-hydroxy-3,4-dihydrospiro[chromene-2,1′-cyclobutan]-4-yl)amino)-2-hydroxypropyl)-2-(methyloxy)propanamide] |  |  | 0.0187 µM | IC50 [1, 6]: 0.0151 µM
5 | COCCNc1nc(CC(C)(C)C)cc2c1OC1(CCC1)C[C@@H]2NC[C@@H](O)[C@H](Cc1ccc(F)cc1)NC(C)=O [compound 149, N-((1S,2R)-3-(((4′S)-6′-(2,2-dimethylpropyl)-8′-((2-(methyloxy)ethyl)amino)-3′,4-dihydrospiro[cyclobutane-1,2′-pyrano[2,3-c]pyridin]-4′-yl)amino)-1-((4-fluorophenyl)methyl)-2-hydroxypropyl)acetamide] | 0.0272 µM | 0.0479 µM |  | 
6 | C#Cc1cc(C[C@H](NC(=O)COC)[C@H](O)CN[C@H]2CC3(CCC3)Oc3ncc(CC(C)(C)C)cc32)cc(-c2nccs2)c1 [compound 889] |  |  |  | IC50 ([1]; Homo sapiens, HEK293, cell-based assay, HEK cells, IC50's in uM, read-out: HEK cell assay): 0.989 µM; IC50 [2, 7]: 0.653 µM
7 | COCC(=O)N[C@@H](Cc1cccc(F)c1)[C@H](O)CN[C@H]1CC2(CCC2)Oc2ncc(CC(C)C)cc21 [compound 329] |  |  |  | IC50 [1, 8]: 0.00601 µM; IC50 [2, 9]: 0.00326 µM
8 | CO[C@H](C)C(=O)N[C@@H](Cc1ccc(Cl)c(F)c1)[C@H](O)CN[C@H]1CC2(CCC2)Oc2ncc(CC(C)(C)F)cc21 [compound 70] | 0.138 µM | 0.0558 µM |  | 
9 | CO[C@@H](C)C(=O)N[C@@H](Cc1ccc2c(c1)OC(F)(F)O2)[C@H](O)CN[C@H]1CC2(CCC2)Oc2ncc(CC(C)(C)C)cc21 [compound 296] | 0.575 µM |  | 0.102 µM | 
10 | COCC(=O)N[C@@H](Cc1cccc(F)c1)[C@H](O)CN[C@H]1CC2(CCC2)Oc2c1cc(CC(C)(C)C)nc2NCC(F)(F)F [compound 143] | 0.314 µM | 0.0195 µM |  | 
11 | CC(C)(C)Cc1cnc2c(c1)[C@@H](NC[C@@H](O)[C@H](Cc1ccc3c(c1)OCO3)NC(=O)C(C)(Cl)Cl)CC1(CCC1)O2 [compound 98] |  | 0.54 µM |  | IC50 [1, 6]: 0.767 µM
12 | CC(=O)NC(Cc1ccc2c(c1)OCO2)C(O)CNC1CC2(CC(O)C2)Oc2ncc(CC(C)C)cc21 [compound 247, N-((1S,2R)-1-(1,3-benzodioxol-5-ylmethyl)-2-hydroxy-3-(((1s,3S,4′S)-3-hydroxy-6′-(2-methylpropyl)-3′,4′-dihydrospiro[cyclobutane-1,2′-pyrano[2,3-b]pyridin]-4′-yl)amino)propyl)acetamide] | 0.0132 µM |  | 0.00677 µM | 
13 | COCC(=O)N[C@@H](Cc1ccc2c(c1)OCO2)[C@H](O)CN[C@H]1CC2(CCC2)Oc2ncc(CC(C)(C)CF)cc21 [compound 181] | 0.0176 µM | 0.0155 µM |  | 
14 | CC(C)(C)Cc1cnc2c(c1)[C@@H](NC[C@@H](O)[C@H](Cc1ccc3c(c1)OCO3)NC(=O)C(F)(F)Cl)CC1(CCC1)O2 [compound 99] | 0.317 µM | 0.0593 µM |  | 
15 | CC(=O)N[C@@H](Cc1ccc(F)cc1)[C@H](O)CN[C@@H]1c2cc(CC(C)(C)C)cnc2OC2(CCC2)[C@@H]1F [compound 358] |  |  |  | IC50 [1, 8]: 0.353 µM; IC50 [2, 9]: 0.0224 µM
16 | COCC(=O)N[C@@H](Cc1ccc(F)cc1)[C@H](O)CN[C@H]1CC2(CCC2)Oc2ccc(CC(C)(C)C#N)cc21 [compound 162] | 0.0311 µM | 0.0446 µM |  | 
17 | COCC(=O)N[C@@H](Cc1cc(Br)c2c(c1)OCO2)[C@H](O)CN[C@H]1CC2(CCC2)Oc2ncc(CC(C)(C)C)cc21 [compound 204] | 0.0824 µM |  | 0.0956 µM | 
18 | COCC(=O)N[C@@H](Cc1ccc2c(c1)OCO2)[C@H](O)CN[C@H]1CC2(CCC2)Oc2c1cc(CC(C)(C)C)nc2NCC(F)(F)F [compound 142] | 1.95 µM | 0.35 µM |  | 
19 | CC(=O)N[C@@H](Cc1ccc2c(c1)OCO2)[C@H](O)CN[C@H]1CC2(CCC2)Oc2ncc(CC(C)(F)F)cc21 [compound 275] | 0.0638 µM |  | 0.082 µM | 
20 | CC(=O)N[C@@H](Cc1ccc2c(c1)OCO2)[C@H](O)CN[C@H]1CC2(CCC2)Oc2ncc(CC(C)(C)CF)cc21 [compound 178] | 0.0175 µM | 0.00839 µM |  | 
21 | COCC(=O)N[C@@H](Cc1cccc(F)c1)[C@H](O)CN[C@H]1CC2(CCC2)Oc2ncc(C[C@@H](C)C(F)(F)F)cc21 [compound 326] |  |  |  | IC50 [1, 8]: 0.0271 µM; IC50 [2, 9]: 0.00777 µM

Row | SMILES | IC50 [1, 3] | IC50 [2, 4] | IC50 [2, 5] | other results
22 | COc1cc(C[C@H](NC(C)=O)[C@H](O)CN[C@H]2CC3(CCC3)Oc3ncc(CC(C)(C)C)cc32)ccc1F [compound 78] | 0.00763 µM | 0.00449 µM |  | 
23 | C#CCCC(=O)N[C@@H](Cc1ccc2c(c1)OCO2)[C@H](O)CN[C@H]1CC2(CCC2)Oc2ncc(CC(C)(C)C)cc21 [compound 843] |  |  |  | IC50 [1, 10]: 0.065 µM; IC50 [2, 7]: 0.044 µM
24 | CC(=O)N[C@@H](Cc1ccccc1)[C@H](O)CN[C@H]1CC2(CCC2)Oc2ncc(C[C@@H](C)C(F)(F)F)cc21 [compound 317] |  |  |  | IC50 [1, 8]: 0.0278 µM; IC50 [2, 9]: 0.0197 µM
25 | COCC(=O)NC(Cc1ccc(F)c(F)c1)C(O)CNC1CC2(CC(O)C2)Oc2ncc(CC(C)(C)C)cc21 [compound 233, N-((1S,2R)-1-((3,4-difluorophenyl)methyl)-3-(((1s,3S,4′S)-6′-(2,2-dimethylpropyl)-3-hydroxy-3′,4′-dihydrospiro[cyclobutane-1,2′-pyrano[2,3-b]pyridin]-4′-yl)amino)-2-hydroxypropyl)-2-(methyloxy)acetamide] | 0.00733 µM |  | 0.00724 µM | 
26 | COCC(=O)N[C@@H](Cc1ccc(F)cc1)[C@H](O)CN[C@H]1CC2(CCC2)Oc2c(F)cc(CC(C)(C)C)cc21 [compound 229] | 0.0856 µM |  | 0.00819 µM | 
27 | CC(=O)N[C@@H](Cc1ccc2c(c1)OC(F)(F)O2)[C@H](O)CN[C@H]1CC2(CCC2)Oc2ncc(CC(C)(C)C)cc21 [compound 292] | 0.159 µM |  | 0.0325 µM | 
28 | COCC(=O)N[C@@H](Cc1ccc2c(c1)OCO2)[C@H](O)CN[C@H]1CC2(CCC2)Oc2ncc([C@H](F)C(C)(C)C)cc21 [compound 183] | 0.0178 µM | 0.00863 µM |  | 
29 | COCC(=O)NC(Cc1ccc2c(c1)OCO2)C(O)CNC1CC2(CC(C)C2)Oc2ncc(CC(C)(C)C)cc21 [compound 238, N-((1S,2R)-1-(1,3-benzodioxol-5-ylmethyl)-3-(((1s,3R,4′S)-6′-(2,2-dimethylpropyl)-3-methyl-3′,4′-dihydrospiro[cyclobutane-1,2′-pyrano[2,3-b]pyridin]-4′-yl)amino)-2-hydroxypropyl)-2-(methyloxy)acetamide] | 0.0327 µM |  | 0.0184 µM | 
30 | COCC(=O)N[C@@H](Cc1ccc(F)cc1)[C@H](O)CN[C@H]1CC2(CCC2)Oc2ncc([C@H](O)C(C)(C)C)cc21 [compound 188] | 1.66 µM |  | 0.0612 µM | 
31 | COCC(=O)N[C@@H](Cc1ccc(F)cc1)[C@H](O)CN[C@H]1CC2(CCC2)Oc2ncc(CC(C)(C)C(F)F)cc21 [compound 160] | 0.0391 µM | 0.00884 µM |  | 
32 | CC#Cc1cccc(C[C@H](NC(=O)[C@@H](C)OC)[C@H](O)CN[C@H]2CC3(CCC3)Oc3ncc(CC(C)C)cc32)c1 [compound 803] |  |  |  | IC50 [1, 10]: 0.132 µM; IC50 [2, 7]: 0.022 µM
33 | CO[C@H](C)C(=O)N[C@@H](Cc1cc(Cl)c2c(c1)OCO2)[C@H](O)CN[C@H]1CC2(CCC2)Oc2ncc(CC(C)(C)C)cc21 [compound 209] | 0.0181 µM |  | 0.0122 µM | 
34 | CC(C)(C)Cc1cnc2c(c1)[C@@H](NC[C@@H](O)[C@H](Cc1ccc(F)cc1)NC(=O)C(F)C(F)(F)F)CC1(CCC1)O2 (stereo partly shown) [compound 158] | 0.241 µM | 0.0504 µM |  | 
35 | COCC(=O)N[C@@H](Cc1ccc2c(c1)OCO2)[C@H](O)CN[C@H]1CC2(CCC2)Cc2ncc(CC(C)(C)C)cc21 [compound 168] | 0.211 µM | 0.149 µM |  | 
36 | CNc1nc(CC(C)(C)C)cc2c1OC1(CCC1)C[C@@H]2NC[C@@H](O)[C@H](Cc1ccc(F)cc1)NC(=O)[C@@H](C)OC [compound 137] | 0.0575 µM | 0.082 µM |  | 
37 | COCC(=O)NC(Cc1ccc2c(c1)OCO2)C(O)CNC1CC2(CC(O)C2)Oc2ccc(CC(C)(C)C)cc21 [compound 267, N-((1S,2R)-1-(1,3-benzodioxol-5-ylmethyl)-3-(((2s,3′S,4S)-6-(2,2-dimethylpropyl)-3′-hydroxy-3,4-dihydrospiro[chromene-2,1′-cyclobutan]-4-yl)amino)-2-hydroxypropyl)-2-(methyloxy)acetamide] | 0.0314 µM |  | 0.0318 µM | 
38 | CC(=O)N[C@@H](Cc1cc(F)cc(F)c1)[C@H](O)CN[C@H]1CC2(CCC2)Oc2ncc(CC(C)(C)C(F)F)cc21 [compound 226] | 0.00527 µM |  | 0.00415 µM | 
39 | CC(C)(C)Cc1cnc2c(c1)[C@@H](NC[C@@H](O)[C@H](Cc1cccc(F)c1)NC(=O)C(Cl)Cl)CC1(CCC1)O2 [compound 105] | 0.0295 µM | 0.00406 µM |  | 
40 | COC(=O)N[C@@H](Cc1ccc2c(c1)OCO2)[C@H](O)CN[C@H]1CC2(CCC2)Oc2ncc([C@H](F)C(C)(C)C)cc21 [compound 359] |  |  |  | IC50 [1, 8]: 0.208 µM; IC50 [2, 9]: 0.199 µM
41 | CC(=O)N[C@@H](Cc1ccc(F)cc1)[C@H](O)CN[C@H]1CC2(CCC2)Cc2ncc(CC(C)(C)C)cc21 [compound 164] | 0.0205 µM | 0.0623 µM |  | 
